Measured values as given in patent US20170305936A1, “SOLID STATE FORMS OF CRISABOROLE” (Pliva Hrvatska d.o.o., priority 2016, published 2017).
Values belong to the molecule of their own block, whether it stands above or below them.

Columns and labels:
Format in all cases: physicochemical
[1] = Thermodynamic (polymorphic) stability on storage, re-analysis by PXRD; conditions: for thermodynamic stability (conversion to any other solid state form, by XRPD): up to 50° C./80% RH
Experimental: Thermodynamic stability in relation to crystalline Crisaborole form I refers to less than 20%, 10%, 5%, 2%, 1%, or 0.5% conversion of crystalline Crisaborole form Ito any other solid state form of Crisaborole after exposure of form Ito conditions of up to 50° C./80% RH, e.g. 2-8° C., 25° C./60% RH, 40° C./75% RH for at least 1 month, as measured by XRPD. In some embodiments, the conversion is 1%-20%, 1%-10% or 1%-5%. […] Thermodynamic stability in relation to crystalline Crisaborole form II refers to less than 20%, 10%, 5%, 2%, 1%, or 0.5% conversion of crystalline Crisaborole form II to any other solid state form of Crisaborole after exposure of form II to conditions of up to 50° C./80% RH, e.g. 25° C./60% RH, 40° C./75% RH for at least 2 months, as measured by XRPD. In some embodiments, the conversion is 1%-20%, 1%-10% or 1%-5%. Sample after being powdered in a mortar and pestle is applied directly on a silicon plate holder. The X-ray powder diffraction pattern was measured with Philips X'Pert PRO X-ray powder diffractometer, equipped with Cu irradiation source=1.54184 Å (Angstrom), X'Celerator (2.022° 2θ) detector. Scanning parameters: angle range: 3-40 deg., step size 0.0167, time per step 37 s, continuous scan. Samples of Crisaborole form I were stored for 2 weeks at 25° C. 2-8° C., and for 1 month at different stress conditions: 25° C./60% RH, 40° C./75% RH, 50° C. and 50° C./80% RH.

[2] = Stability at high humidity levels
Experimental: Moreover, Form I is stable at high humidity levels (e.g. room temperature at 100% RH for 5-7 days), including after milling procedure (e.g. feeding pressure: 6.5 bar; grinding pressure: 6 bar; rotation speed: 300 rpm).

[3] = Hygroscopicity (water absorption, European Pharmacopoeia 7.0, chapter 01/2008:51100); conditions: non-hygroscopic = less than 0.2% (w/w) water absorption after 24 h exposure to 25° C./80% RH
Experimental: As used herein the term non-hygroscopic in relation to crystalline Crisaborole refers to less than 0.2% (w/w) of water absorption after 24 h exposure to 25° C./80% RH, determined according to European Pharmacopoeia 7.0, chapter 01/2008:51100. Water can be for example atmospheric water.

[4] = Solubility in solvents
[5] = Mechanical stability (stress, re-analysis by PXRD)
Experimental: Sample after being powdered in a mortar and pestle is applied directly on a silicon plate holder. The X-ray powder diffraction pattern was measured with Philips X'Pert PRO X-ray powder diffractometer, equipped with Cu irradiation source=1.54184 Å (Angstrom), X'Celerator (2.022° 2θ) detector. Scanning parameters: angle range: 3-40 deg., step size 0.0167, time per step 37 s, continuous scan.

[6] = Chemical stability on storage (impurity profile, HPLC)
Experimental: HPLC analysis was performed on instrument Agilent 1290, with experimental conditions being set as follows: Samples of Crisaborole form I were stored for 2 weeks at 25° C. 2-8° C., and for 1 month at different stress conditions: 25° C./60% RH, 40° C./75% RH, 50° C. and 50° C./80% RH.

- thermodynamic stability (conversion to any other solid state form, by XRPD) ([1]; e.g. 25° C./60% RH, 40° C./75% RH for at least 2 months): good thermodynamic stability
- thermodynamic stability (conversion to any other solid state form, by XRPD) ([1]; e.g. 25° C./60% RH, 40° C./75% RH for at least 2 months, listed as Crystalline form II of Crisaborole): thermodynamically stable
- stability to polymorphic conversions under high humidity ([2]; high humidity): stable
SMILES: N#Cc1ccc(Oc2ccc3c(c2)COB3O)cc1 [Crisaborole form II, 5-(4-Cyanophenoxy)-1,3-dihydro-1-hydroxy-2,1-benzoxaborole]

- hygroscopicity [3]: non-hygroscopic
- solubility in N,N-dimethylformamide ([4]; N,N-dimethylformamide): very soluble
- solubility in ethanol ([4]; ethanol): freely soluble
- solubility in isopropanol ([4]; isopropanol): freely soluble
- solubility in propylene glycol ([4]; propylene glycol): freely soluble
- mechanical stability, PXRD after stress ([5]; pressure of 9 tons on 132.67 mm^2 for 2 min): unchanged
- mechanical stability, PXRD after stress ([5]; pressure of 9 tons on 132.67 mm^2 for 2 min, listed as Form I): resistant to mechanical stress
- mechanical stability, PXRD after stress ([5]; strong grinding using mortar and pestle for 2 min): unchanged
- mechanical stability, PXRD after stress ([5]; strong grinding using mortar and pestle for 2 min, listed as Form I): resistant to mechanical stress
- mechanical stability, PXRD after stress ([5]; strong grinding with a drop of solvent (e.g. H2O, EtOH) using mortar and pestle for 2 min): unchanged
- mechanical stability, PXRD after stress ([5]; strong grinding with a drop of solvent (e.g. H2O, EtOH) using mortar and pestle for 2 min, listed as Form I): resistant to mechanical stress
- PXRD after storage ([1]; 1 month at 25° C./60% RH): unchanged
- PXRD after storage ([1]; 1 month at 40° C./75% RH): unchanged
- PXRD after storage ([1]; 1 month at 50° C.): unchanged
- PXRD after storage ([1]; 1 month at 50° C./80% RH): unchanged
- PXRD after storage ([1]; 2 weeks at 2-8° C.): unchanged
- PXRD after storage ([1]; 2 weeks at 25° C.): unchanged
- thermodynamic stability (conversion to any other solid state form, by XRPD) ([1]; e.g. 2-8° C., 25° C./60% RH, 40° C./75% RH for at least 1 month): good thermodynamic stability
- thermodynamic stability (conversion to any other solid state form, by XRPD) ([1]; e.g. 2-8° C., 25° C./60% RH, 40° C./75% RH for at least 1 month, listed as Crystalline form I of Crisaborole): thermodynamically stable
- chemical stability [6]: chemically stable
- impurity profile after storage ([6]; 1 month at 25° C./60% RH): no change in impurity profile
- impurity profile after storage ([6]; 1 month at 40° C./75% RH): no change in impurity profile
- impurity profile after storage ([6]; 1 month at 50° C.): no change in impurity profile
- impurity profile after storage ([6]; 1 month at 50° C./80% RH): no change in impurity profile
- impurity profile after storage ([6]; 2 weeks at 2-8° C.): no change in impurity profile
- impurity profile after storage ([6]; 2 weeks at 25° C.): no change in impurity profile
- stability at high humidity levels after milling procedure ([2]; after milling (feeding pressure 6.5 bar; grinding pressure 6 bar; rotation speed 300 rpm)): stable
- stability at high humidity levels ([2]; room temperature at 100% RH for 5-7 days): stable
SMILES: N#Cc1ccc(Oc2ccc3c(c2)COB3O)cc1 [Crisaborole form I, 5-(4-Cyanophenoxy)-1,3-dihydro-1-hydroxy-2,1-benzoxaborole]
